According to publication PMC4630399, “Charge-Based Inhibitors of Amylin Fibrillization and Toxicity” (Journal of Diabetes Research, 2015):
Entries after “also recorded” stand apart in the source; their conditions may differ. Like-named read-outs stand apart in the source and are kept apart here. Positions of bridges follow the written chain, without caps; N, C: chain ends. Residues, ends and D or L forms follow the SMILES beside them. No end group written: not given here.

Key:
[1] = tested on: MIN6 models of pancreatic β-cells; conditions: neutral pH, cited from earlier work
Text: (§1) In type 2 diabetes, the positively charged 37-residue hormone amylin misfolds into cationic fibrils which have been implicated in the destruction of the pancreatic β-cells that make insulin and amylin, thus contributing to pathology. Amylin is a particularly favorable system for investigating the roles of charges in fibrillization, since the core of the intermolecular β-sheet fibril structure has only one pH-titratable group, His18 [9]. The histidine acts as an electrostatic switch, inhibiting fibrillization in its charged state at acidic pH and favoring fibrillization in its uncharged ... || The motivation for the studies described in this work was to see if electrostatic charge repulsion could be exploited to design new types of inhibitors of amylin fibrillization and cytotoxicity. […] Moreover, addition of a single charged lysine residue ...

[2] = tested on: MIN6 mouse model of pancreatic β-cells; conditions: melittin compared with 160 μM WT-amylin
Protocol: (§2) The stock solutions were diluted with FBS-free DMEM and sonicated continuously for 5 min at 75% amplitude before use. FBS was subsequently added to a concentration of 15% (v/v), giving final amylin concentrations of 40, 80, and 160 μM. The final DMSO concentration for all cytotoxicity experiments was 1% (v/v).
(§3) Cytotoxicity was measured using the mouse insulinoma 6 (MIN6) cell line model of β-pancreatic cells, which were a gift from Dr. Anil Rustgi (University of Pennsylvania). Cells were seeded at a density of 20,000 per 100 μL in black clear-bottom 96-well plates. The cells were grown in DMEM with 15% FBS, 25 mM glucose, 2 mM L-glutamine, […] sodium pyruvate, 55 μM β-mercaptoethanol, 1000 units/mL penicillin, and 100 μg/mL streptomycin, for 20 h at 37°C in a humidified incubator with 5% CO2. […] The cells were incubated for another 24 h followed by the addition of 10% (v/v) of the redox indicator dye Alamar Blue at the concentration supplied by the manufacturer (Invitrogen). Fluorescence, due to the reduction of Alamar Blue by viable cells, was measured after 6 h, using excitation and emission wavelengths of 544 and 590 nm, respectively. Cell viability was calculated from the ratio of Alamar Blue fluorescence in treated to untreated cells. Uncertainties were calculated as the SEMs of triplicate measurements.

[3] = tested on: WT-amylin fibrillization; conditions: cited from earlier work
Text: as §1, with “|| An IC50 analysis of the inhibition data was performed to obtain quantitative information (Figure 5).” for “||”, “Arg-1 concentration-dependence” for “motivation”, “inhibition of WT-amylin fibril elongation rates gives an IC50 value of 0.6 ± 0.5 μM. For Arg-2 and Mem-T, the IC50 values are ~10 μM (Figure 5(a)). In addition” for “studies described in this work was”, “effecting elongation rates, Arg-2 increases the lag times for WT-amylin fibrillization with an IC50” for “see if electrostatic charge repulsion could be exploited to design new types”, “~0.1 μM.” for “inhibitors of amylin fibrillization and cytotoxicity.”

[4] = biological target: T1, WT-amylin (Homo sapiens, UniProt P10997); test: ThT assay, inhibition of WT-amylin fibrillization by analogs added in trans; type: biochemical; set-up: purchased Biopeptide (San Diego, CA); host or cells: solid-phase synthesis; conditions: 20 μM WT-amylin
T1 sequence (P10997 34-70 limits assumed): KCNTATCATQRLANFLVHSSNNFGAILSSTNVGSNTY
Protocol: The time course of fibrillization in solution was monitored using 100–200 μL amylin samples, contained in white polystyrene clear bottom 96-well plates (Corning Inc., Corning, NY). Plates were covered with a clear polyester sealing tape (Fisher Scientific, Agawam, MA) to prevent evaporation. Stock solutions of 1.1 mM WT-amylin and inhibitor peptides were prepared in 100% DMSO, which dissolves and disaggregates amylin fibrils, and were stored at −80°C when not in use. […] For experiments using larger 400 μM concentrations of Arg-2 and Mem-T, the solutions were prepared by diluting 100% DMSO stock solutions of 20 mM peptide to a final DMSO concentration of 2% (v/v). Amylin was the last component added to the samples for the kinetic reactions, in order to reduce the dead time for the experiments. The plates were incubated at 25°C without agitation. Fluorescence intensity was recorded at 2 min intervals with excitation at 440 nm and emission at 490 nm on a Fluoroskan Ascent 2.5 fluorescence plate reader. Fibrillization reactions for the peptides alone were performed in triplicate and for analog-peptide inhibition of WT-amylin in duplicate, to estimate experimental uncertainties in kinetic parameters.

[5] = biological target: T1, WT-amylin; test: TEM of WT-amylin fibrils formed in presence of inhibitor peptides; type: biochemical; set-up: purchased Biopeptide (San Diego, CA); host or cells: solid-phase synthesis; conditions: 80 μM WT-amylin with 160 μM analog, 20 mM sodium phosphate pH 7.4, 1% DMSO, 37°C, 24 h
Protocol: (§4) Samples containing 80 μM concentrations of WT-amylin and the three analogs were incubated without agitation at a temperature of 37°C in 20 mM phosphate buffer (pH 7.4). For the inhibition reactions, samples contained WT-amylin at an 80 μM concentration, together with 160 μM of Arg-1, Arg-2, or Mem-T analogs. Aliquots from the reactions were removed after 2 days for TEM imaging. The aliquots were blotted onto carbon-coated 400-mesh Maxtaform copper grids (Ted Pella Inc. Redding, CA) for 1–3 min, followed by negative staining with 1% uranyl acetate. TEM images were recorded on an FEI Tecnai G^2 Spirit BioTwin transmission electron microscope equipped with an AMT XR-40 camera.
Figure 8 TEM images of fibrils formed from 80 μM WT amylin in the presence or absence of inhibitor peptides. (a) WT amylin alone, (b) with 160 μM Arg-1, (c) with 160 μM Arg-2, and (d) with 160 μM Mem-T. Aliquots were removed for TEM imaging 24 h after the fibrillization reactions were started. Reactions were carried out in 20 mM sodium phosphate (pH 7.4), 1% DMSO (v/v), at 37°C.

[6] = TEM of aggregates formed by peptides alone; type: physicochemical; conditions: 80 μM peptide, 2 days, 20 mM phosphate pH 7.4, 37°C, no agitation
Protocol: as §4

[7] = tested on: WT-amylin cytotoxicity towards MIN6 mouse model of pancreatic β-cells; test: Protection of MIN6 cells against WT-amylin cytotoxicity (Alamar Blue); conditions: 160 μM analog : 80 μM WT-amylin (2 : 1)
Protocol: as §2, §3

[8] = ThT assay of fibrillization kinetics, peptides alone; type: physicochemical
Protocol: The time course of fibrillization in solution was monitored using 100–200 μL amylin samples, contained in white polystyrene clear bottom 96-well plates (Corning Inc., Corning, NY). Plates were covered with a clear polyester sealing tape (Fisher Scientific, Agawam, MA) to prevent evaporation. Stock solutions of 1.1 mM WT-amylin and inhibitor peptides were prepared in 100% DMSO, which dissolves and disaggregates amylin fibrils, and were stored at −80°C when not in use. Starting from the 1.1 mM stock solutions in 100% DMSO, samples for fibrillization reactions were prepared to contain 20 μM amylin and 10 μM ultrapure ThT, in 20 mM sodium phosphate buffer, pH 7.4, and a final DMSO concentration of 2% (v/v). For experiments using larger 400 μM concentrations of Arg-2 and Mem-T, the solutions were prepared by diluting 100% DMSO stock solutions of 20 mM peptide to a final DMSO concentration of 2% (v/v). Amylin was the last component added to the samples for the kinetic reactions, in order to reduce the dead time for the experiments. The plates were incubated at 25°C without agitation. Fluorescence intensity was recorded at 2 min intervals with excitation at 440 nm and emission at 490 nm on a Fluoroskan Ascent 2.5 fluorescence plate reader. Fibrillization reactions for the peptides alone were performed in triplicate and for analog-peptide inhibition of WT-amylin in duplicate, to estimate experimental uncertainties in kinetic parameters.

[9] = set-up: method as in 2 sources, ref 21 = [21]; PMID 23016872; doi:10.1021/bi300574r; 21 Marek P. J. Patsalo V. Green D. F. Raleigh D. P. Ionic strength effects on amyloid formation by amylin are a complicated interplay among debye screening, ion selectivity, and hofmeister effects Bio ||| ref 7 = [7]; PMID 22206987; doi:10.1016/j.jmb.2011.12.032; 7 Cao P. Tu L.-H. Abedini A. Sensitivity of amyloid formation by human islet amyloid polypeptide to mutations at residue 20 Journal of Molecular Biology 2012 421 2-3 282 295 10.1016/j.jmb.2011.12.032; conditions: compared to WT-amylin; cited from earlier work
Text: In type 2 diabetes, the positively charged 37-residue hormone amylin misfolds into cationic fibrils which have been implicated in the destruction of the pancreatic β-cells that make insulin and amylin, thus contributing to pathology. Amylin is a particularly favorable system for investigating the roles of charges in fibrillization, since the core of the intermolecular β-sheet fibril structure has only one pH-titratable group, His18 [9].

H18R: H18R mutant of amylin (KCNTATCATQRLANFLVRSSNNFGAILSSTNVGSNTY; not fully specified (C-terminus); ends and bridges not checked; UniProt P10997 34-70, looked up, variant H18R)
cytotoxicity to β-cells [1]: not cytotoxic to β-cells | cytotoxicity to β-cells ([1]; listed as Substitution of a positively charged arginine at position 18): lowers cytotoxicity to MIN6 models of pancreatic β-cells compared to WT-amylin

melittin
viability of MIN6 cells, positive control [2]: comparable to the value obtained with the potent toxin melittin

heparin
effect on WT-amylin fibrillization [3]: enhance fibrillization of WT-amylin

CC(C)C[C@H](NC(=O)[C@H](CCCNC(=N)N)NC(=O)[C@H](CCC(N)=O)NC(=O)[C@@H](NC(=O)[C@H](C)NC(=O)[C@@H]1CSSC[C@H](NC(=O)[C@@H](N)CCCCN)C(=O)N[C@@H](CC(N)=O)C(=O)N[C@@H]([C@@H](C)O)C(=O)N[C@@H](C)C(=O)N[C@@H]([C@@H](C)O)C(=O)N1)[C@@H](C)O)C(=O)N[C@@H](C)C(=O)N[C@@H](CC(N)=O)C(=O)N[C@@H](Cc1ccccc1)C(=O)N[C@@H](CC(C)C)C(=O)N[C@H](C(=O)N[C@@H](Cc1c[nH]cn1)C(=O)N[C@@H](CO)C(=O)N[C@@H](CO)C(=O)N[C@@H](CC(N)=O)C(=O)N[C@@H](CC(N)=O)C(=O)N[C@@H](CCCNC(=N)N)C(=O)N[C@@H](CCCNC(=N)N)C(=O)N[C@@H](CCCNC(=N)N)C(=O)N[C@@H](CCCNC(=N)N)C(=O)N[C@@H](CC(C)C)C(=O)N[C@@H](CO)C(=O)N[C@@H](CO)C(=O)N[C@H](C(=O)N[C@@H](CC(N)=O)C(=O)N[C@H](C(=O)NCC(=O)N[C@@H](CO)C(=O)N[C@@H](CC(N)=O)C(=O)N[C@H](C(=O)N[C@@H](Cc1ccc(O)cc1)C(N)=O)[C@@H](C)O)C(C)C)[C@@H](C)O)C(C)C [Arg-2] (H-KCNTATCATQRLANFLVHSSNNRRRRLSSTNVGSNTY-NH2; disulfide 2-7 (inferred); N-terminus assumed)
effect on WT-amylin fibrillization lag time ([4]; 150 mM NaCl): increased with increasing concentrations | reduction of WT-amylin fibril elongation rate ([4]; 150 mM NaCl, analog 0.001 to 120 μM): 8–10 fold | salt dependence of inhibition of elongation rate ([4]; varying NaCl): A very similar effect is seen; also recorded: more effective at physiological salt concentration or higher than in the absence of salt | TEM of WT-amylin fibrils formed with inhibitor [5]: somewhat fewer fibrils and a greater amount of short fibrils | aggregate morphology by TEM [6]: only detected amorphous aggregates with nonfibrillar morphologies; also recorded: few if any fibrils | protection against WT-amylin cytotoxicity [7]: protects against cytotoxicity | fibrillization detected (ThT) ([8]; 20 μM peptide, 150 mM NaCl, pH 7.4, 25°C): failed to fibrillize | fibrillization detected (ThT) ([8]; 400 μM peptide, pH 7.4, 2% DMSO, 25°C): still failed to fibrillize | fibrillization of peptide on its own (overall) ([8]; ThT, all conditions tested): did not form fibrils under any of the conditions tested; also recorded: did not form fibrils even at high concentrations of the peptide and salt

S20K: amylin with the S20K mutation (KCNTATCATQRLANFLVHSKNNFGAILSSTNVGSNTY; not fully specified (C-terminus); ends and bridges not checked; UniProt P10997 34-70, looked up, variant S20K)
inhibition of WT-amylin fibrillization ([3]; added in trans): inhibit fibrillization of the WT-amylin peptide; also recorded: inhibits fibrillization of WT-amylin when added in trans | fibrillization of mutant amylin [9]: much slower fibrillization; also recorded: fibrillizes much more slowly
